This note sets out measurements from patent US12084472B2 (Ardelyx, Inc., priority 2015, dated 2024).

The assay has as its target T1, human TGR5 (Homo sapiens, UniProt Q8TDU6).
T1 construct: expressed in transfected cells; host or cells: HEK293
T1 sequence (Q8TDU6 1-330): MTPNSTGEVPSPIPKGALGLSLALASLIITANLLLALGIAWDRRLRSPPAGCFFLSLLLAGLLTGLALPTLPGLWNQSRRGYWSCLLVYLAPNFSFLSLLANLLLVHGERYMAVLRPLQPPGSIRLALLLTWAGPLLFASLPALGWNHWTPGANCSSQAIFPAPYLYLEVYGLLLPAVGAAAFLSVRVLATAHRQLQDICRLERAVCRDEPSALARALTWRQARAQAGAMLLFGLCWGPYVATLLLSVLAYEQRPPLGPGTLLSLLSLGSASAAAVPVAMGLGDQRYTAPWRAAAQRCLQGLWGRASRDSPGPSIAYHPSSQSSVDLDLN
In words: Cell-based TGR5 assay (cAMP generation, HTRF). The following applies: HEK293 cells stably transfected with human TGR5; cAMP by HTRF; 30 minutes at 37° C.; read-out: pEC50 Human TGR5 (converted). Summed up:
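Read-out was HTRF detection of cAMP, converted to concentration via a standard curve and fitted (3-parameter logistic) for pEC50 and maximal response. Agonist stimulation used HEK293 cells stably transfected with human TGR5, incubated 30 min at 37° C in IBMX-containing buffer at 0.05 nM to 10 μM compound.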
On the technique in general: TR-FRET usually uses a lanthanide donor and a delayed reading to cut background.
For the molecule `CS(=O)(=O)CCN(CCCCSc1ccc(Cl)c(COC2(c3cnccc3-c3ccccc3OC3CC3)CC2)c1)C[C@H](O)[C@@H](O)[C@H](O)[C@H](O)CO` [Compound I-613, (2R,3R,4R,5S)-6-[(4-{[4-chloro-3-({1-[4-(2-cyclopropoxyphenyl)pyridin-3-yl]cyclopropoxy}methyl)phenyl]sulfanyl}butyl)(2-methanesulfonylethyl)amino]hexane-1,2,3,4,5-pentol], the EC50 was less than 100 nM.
For `O=C1NCCN1CCN(CCCCSc1ccc(Cl)c(CNC2(c3cnccc3-c3ccccc3OC3CC3)CC2)c1)C(=O)[C@@H](O)[C@@H](O)[C@H](O)[C@@H](O)CO` [Compound I-624, (2S,3S,4R,5S)-N-[4-({4-chloro-3-[({1-[4-(2-cyclopropoxyphenyl)pyridin-3-yl]cyclopropyl}amino)methyl]phenyl}sulfanyl)butyl]-2,3,4,5,6-pentahydroxy-N-[2-(2-oxoimidazolidin-1-yl)ethyl]hexanamide] the value was 126 to 1000 nM.
`FC(F)(F)c1ccc(Cl)cc1CNC1(c2cnccc2-c2ccccc2OC2CC2)CC1` [Compound I-30, N-{[5-chloro-2-(trifluoromethyl)phenyl]methyl}-1-[4-(2-cyclopropoxyphenyl)pyridin-3-yl]cyclopropan-1-amine]: the EC50 was 126 to 1000 nM.
Consider `CC(CCCC(=O)NC[C@H](O)[C@@H](O)[C@H](O)[C@H](O)CO)c1ccc(Cl)c(CNC2(c3cnccc3-c3ccccc3OC3CC3)CC2)c1` (stereo partly drawn) [Compound I-316, 5-{4-chloro-3-[({1-[4-(2-cyclopropoxyphenyl)pyridin-3-yl]cyclopropyl}amino)methyl]phenyl}-N-[(2S,3R,4R,5R)-2,3,4,5,6-pentahydroxyhexyl]hexanamide], for which the EC50 was less than 100 nM.
Turning to `CC(CCCN(CCS(C)(=O)=O)C(=O)[C@@H](O)[C@@H](O)[C@H](O)[C@@H](O)CO)c1ccc(Cl)c(COC2(c3cnccc3-c3ccccc3OC3CC3)CC2)c1` (stereo partly drawn) [Compound I-309, (2S,3S,4R,5S)-N-(4-[4-chloro-3-({1-[4-(2-cyclopropoxyphenyl)pyridin-3-yl]cyclopropoxy)methyl)phenyl]pentyl}-2,3,4,5,6-pentahydroxy-N-(2-methanesulfonylethyl)hexanamide], the EC50 is less than 100 nM.
For the molecule `CC(=O)N(CCCCSc1ccc(Cl)c(COC2(c3cnccc3-c3ccccc3OC3CC3)CC2)c1)C[C@H](O)[C@@H](O)[C@H](O)[C@H](O)CO` [Compound I-501, N-(4-{[4-chloro-3-({1-[4-(2-cyclopropoxyphenyl)pyridin-3-yl]cyclopropoxy}methyl)phenyl]sulfanyl}butyl)-N-[(2S,3R,4R,5R)-2,3,4,5,6-pentahydroxyhexyl]acetamide], the EC50 is less than 100 nM.
In the case of `Cc1ccc(C(C)CCCC(=O)O)cc1CNC1(c2cnccc2-c2ccccc2OC2CC2)CC1` (single isomer, unassigned) [Compound I-253], the EC50 is less than 100 nM.
As for `CC(=O)NCCCCN(CCCC(C)c1ccc(Cl)c(CNC2(c3cnccc3-c3ccccc3OC3CC3)CC2)c1)C(=O)[C@@H](O)[C@@H](O)[C@H](O)[C@@H](O)CO` (stereo partly drawn) [Compound I-290, (2S,3S,4R,5S)-N-(4-{4-chloro-3-[({1-[4-(2-cyclopropoxyphenyl)pyridin-3-yl]cyclopropyl}amino)methyl]phenyl}pentyl)-N-(4-acetamidobutyl)-2,3,4,5,6-pentahydroxyhexanamide], the EC50 is less than 100 nM.
On to `CNS(=O)(=O)c1ccc(Cl)c(COC2(c3cnccc3-c3ccccc3OC3CC3)CC2)c1` [Compound I-394, 4-chloro-3-({1-[4-(2-cyclopropoxyphenyl)pyridin-3-yl]cyclopropoxy}methyl)-N-methylbenzene-1-sulfonamide], for which the EC50 was less than 100 nM.
As for `CN(CCCSc1ccc(Cl)c(CNC2(c3cnccc3-c3ccccc3OC3CC3)CC2)c1)C(=O)[C@@H](O)[C@@H](O)[C@H](O)[C@@H](O)CO` [Compound I-511, (2S,3S,4R,5S)-N-[3-({4-chloro-3-[({1-[4-(2-cyclopropoxyphenyl)pyridin-3-yl]cyclopropyl}amino)methyl]phenyl}sulfanyl)propyl]-2,3,4,5,6-pentahydroxy-N-methylhexanamide], the EC50 was less than 100 nM.
For `Cc1ccc(C(C)CCCC(=O)N(C)C[C@H](O)[C@@H](O)[C@H](O)[C@H](O)CO)cc1CNC1(c2cnccc2-c2ccccc2OC2CC2)CC1` (stereo partly drawn) [Compound I-352, 5-{3-[({1-[4-(2-cyclopropoxyphenyl)pyridin-3-yl]cyclopropyl}amino)methyl]-4-methylphenyl}-N-methyl-N-[(2S,3R,4R,5R)-2,3,4,5,6-pentahydroxyhexyl]hexanamide], the EC50 is less than 100 nM.
The result for `C[C@@H](CCCC(=O)NC[C@H](O)[C@@H](O)[C@H](O)[C@H](O)CO)c1ccc(Cl)c(CNC2(c3cnccc3-c3ccccc3OC3CC3)CC2)c1` (single isomer, unassigned) [Compound I-314] reads less than 100 nM; that for `O=C(NC[C@H](O)[C@@H](O)[C@H](O)[C@H](O)CO)N[C@H]1CC[C@H](NS(=O)(=O)c2ccc(Cl)c(COC3(c4cnccc4-c4ccccc4OC4CC4)CC3)c2)CC1` [Compound I-418, 3-[(2S,3R,4R,5R)-2,3,4,5,6-pentahydroxyhexyl]-1-[(1r,4r)-4-[4-chloro-3-({l-[4-(2-cyclopropoxyphenyl)pyridin-3-yl]cyclopropoxy}methyl)benzenesulfonamido]cyclohexyl]urea], less than 100 nM.
In the case of `O=C(NCCOCCSc1ccc(Cl)c(COC2(c3cnccc3-c3ccccc3OC3CC3)CC2)c1)NC[C@H](O)[C@@H](O)[C@H](O)[C@H](O)CO` [Compound I-490, 1-[2-(2-[[4-Chloro-3-([1-[4-(2-cyclopropoxyphenyl)pyridin-3-yl]cyclopropoxy]methyl)phenyl]sulfanyl]ethoxy)ethyl]-3-[(2S,3R,4R,5R)-2,3,4,5,6-pentahydroxyhexyl]urea], the EC50 was less than 100 nM.
For `CC(CCCN(CCS(C)(=O)=O)C(=O)[C@@H](O)[C@@H](O)[C@H](O)[C@@H](O)CO)c1ccc(Cl)c(CNC2(c3cnccc3-c3ccccc3OC3CC3)CC2)c1` (stereo partly drawn) [Compound I-289, (2S,3S,4R,5S)-N-(4-{4-chloro-3-[({1-[4-(2-cyclopropoxyphenyl)pyridin-3-yl]cyclopropyl}amino)methyl]phenyl}pentyl)-2,3,4,5,6-pentahydroxy-N-(2-methanesulfonylethyl)hexanamide] the value was less than 100 nM.
For the molecule `Cc1cc(COC2(c3cnccc3-c3ccccc3OC3CC3)CC2)c(Cl)cc1CCCCNC(=O)[C@@H](O)[C@@H](O)[C@H](O)[C@@H](O)CO` (stereo in doubt) [Compound I-172, (2S,3S,4R,5S)-N-{4-[5-chloro-4-({1-[4-(2-cyclopropoxyphenyl)pyridin-3-yl]cyclopropoxy)methyl)-2-methylphenyl]butyl}-2,3,4,5,6-pentahydroxyhexanamide], the EC50 is less than 100 nM.
In the case of `O=C([C@@H](O)[C@@H](O)[C@H](O)[C@@H](O)CO)N(CCCCc1cc(Cl)c(COC2(c3cnccc3-c3ccccc3OC3CC3)CC2)cc1Cl)CC1CC1` [Compound I-211, (2S,3S,4R,5S)-N-(cyclopropylmethyl)-N-{4-[2,5-dichloro-4-({1-[4-(2-cyclopropoxyphenyl)pyridin-3-yl]cyclopropoxy}methyl)phenyl]butyl}-2,3,4,5,6-pentahydroxyhexanamide], the EC50 is less than 100 nM.
Take `O=C(NCCCCNS(=O)(=O)c1ccc(Cl)c(COC2(c3c[n+]([O-])ccc3-c3ccccc3OC3CC3)CC2)c1)[C@@H](O)[C@@H](O)[C@H](O)[C@@H](O)CO` [Compound I-775, 3-(1-((2-chloro-5-(N-(4-((2S,3S,4R,5S)-2,3,4,5,6-pentahydroxyhexanamido)butyl)sulfamoyl)benzyl)oxy)cyclopropyl)-4-(2-cyclopropoxyphenyl)pyridine 1-oxide]: the EC50 is 126 to 1000 nM.
Regarding `O=C(NC[C@H](O)[C@@H](O)[C@H](O)[C@H](O)CO)NC1CC2(C1)CN(S(=O)(=O)c1ccc(Cl)c(COC3(c4cnccc4-c4ccccc4OC4CC4)CC3)c1)C2` [Compound I-430, 1-{2-[4-chloro-3-({1-[4-(2-cyclopropoxyphenyl)pyridin-3-yl]cyclopropoxy}methyl)benzenesulfonyl]-2-azaspiro[3.3]heptan-6-yl}-3-[(2S,3R,4R,5R)-2,3,4,5,6-pentahydroxyhexyl]urea], the EC50 was 126 to 1000 nM.
With `CCS(=O)(=O)CCN(CCCC(C)c1ccc(Cl)c(CNC2(c3cnccc3-c3ccccc3OC3CC3)CC2)c1)C(=O)[C@@H](O)[C@@H](O)[C@H](O)[C@@H](O)CO` (stereo partly drawn) [Compound I-293, (2S,3S,4R,5S)-N-(4-{4-chloro-3-[({1-[4-(2-cyclopropoxyphenyl)pyridin-3-yl]cyclopropyl}amino)methyl]phenyl}pentyl)-N-[2-(ethanesulfonyl)ethyl]-2,3,4,5,6-pentahydroxyhexanamide], the EC50 was less than 100 nM.
As for `O=C([C@@H](O)[C@@H](O)[C@H](O)[C@@H](O)CO)N(CCCCSc1ccc(Cl)c(CNC2(c3cnccc3-c3ccccc3OC3CC3)CC2)c1)CC1CCOCC1` [Compound I-536, (2S,3S,4R,5S)-N-[4-({4-chloro-3-[({1-[4-(2-cyclopropoxyphenyl)pyridin-3-yl]cyclopropyl}amino)methyl]phenyl}sulfanyl)butyl]-2,3,4,5,6-pentahydroxy-N-(oxan-4-ylmethyl)hexanamide], the EC50 was 126 to 1000 nM.
